Results from ChEMBL document CHEMBL3039007, “Structure-based identification of OATP1B1/3 inhibitors” (Mol Pharmacol, 2013).

Columns and labels:
[1] = molecular target: T1, Solute carrier organic anion transporter family member 1B1 (Homo sapiens, UniProt Q9Y6L6)
T1 sequence (Q9Y6L6 whole entry): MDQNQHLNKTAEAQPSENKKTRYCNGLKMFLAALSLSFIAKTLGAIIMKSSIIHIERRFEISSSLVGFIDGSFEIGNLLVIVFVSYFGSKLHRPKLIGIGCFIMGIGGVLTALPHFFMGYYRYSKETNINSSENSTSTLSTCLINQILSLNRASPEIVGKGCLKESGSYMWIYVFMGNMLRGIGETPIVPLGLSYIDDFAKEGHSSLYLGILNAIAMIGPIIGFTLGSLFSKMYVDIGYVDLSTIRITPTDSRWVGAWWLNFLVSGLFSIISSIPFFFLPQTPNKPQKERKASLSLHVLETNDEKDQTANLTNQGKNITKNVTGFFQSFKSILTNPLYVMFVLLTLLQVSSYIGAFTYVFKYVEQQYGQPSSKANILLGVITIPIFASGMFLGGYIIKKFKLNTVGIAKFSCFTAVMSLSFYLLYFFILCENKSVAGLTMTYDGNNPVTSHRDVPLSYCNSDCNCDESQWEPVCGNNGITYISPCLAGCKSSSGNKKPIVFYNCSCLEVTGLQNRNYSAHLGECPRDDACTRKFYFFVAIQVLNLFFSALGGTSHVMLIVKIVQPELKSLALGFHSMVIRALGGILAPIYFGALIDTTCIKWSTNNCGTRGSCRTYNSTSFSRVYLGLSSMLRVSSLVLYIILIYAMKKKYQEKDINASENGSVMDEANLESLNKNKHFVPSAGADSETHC

[2] = molecular target: T2, Solute carrier organic anion transporter family member 1B3 (Homo sapiens, UniProt Q9NPD5)
T2 sequence (Q9NPD5 whole entry): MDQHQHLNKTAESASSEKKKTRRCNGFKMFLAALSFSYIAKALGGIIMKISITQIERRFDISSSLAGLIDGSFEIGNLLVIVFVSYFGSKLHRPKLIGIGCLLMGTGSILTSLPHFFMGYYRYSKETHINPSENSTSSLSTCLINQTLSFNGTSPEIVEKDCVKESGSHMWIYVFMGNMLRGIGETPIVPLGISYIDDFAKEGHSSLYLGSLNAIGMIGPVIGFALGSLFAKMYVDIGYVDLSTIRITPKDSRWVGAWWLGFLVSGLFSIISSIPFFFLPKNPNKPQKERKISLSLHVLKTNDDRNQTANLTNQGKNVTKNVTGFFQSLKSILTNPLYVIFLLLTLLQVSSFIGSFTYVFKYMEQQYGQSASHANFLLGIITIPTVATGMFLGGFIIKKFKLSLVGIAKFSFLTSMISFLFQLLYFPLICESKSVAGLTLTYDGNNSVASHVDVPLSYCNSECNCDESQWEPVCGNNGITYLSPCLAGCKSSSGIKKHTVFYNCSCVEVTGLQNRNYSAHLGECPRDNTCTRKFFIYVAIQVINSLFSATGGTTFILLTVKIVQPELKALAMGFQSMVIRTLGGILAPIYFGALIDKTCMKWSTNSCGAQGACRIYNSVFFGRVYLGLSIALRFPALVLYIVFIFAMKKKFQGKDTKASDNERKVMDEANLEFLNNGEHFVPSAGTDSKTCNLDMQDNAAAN

[3] = molecular target: T2, Solute carrier organic anion transporter family member 1B3; remark: listed apart in the source
[4] = molecular target: T2, Solute carrier organic anion transporter family member 1B3; details: chinese hamster, cho, 10 µM
[5] = molecular target: T1, Solute carrier organic anion transporter family member 1B1; details: chinese hamster, cho, 10 µM
[6] = molecular target: T1, Solute carrier organic anion transporter family member 1B1; remark: listed apart in the source

SMILES: C/C=C(\C)C(=O)O[C@H]1[C@H](OC(C)=O)[C@@]2(CO)C(CC1(C)C)C1=CC[C@@H]3[C@@]4(C)CC[C@H](O[C@@H]5O[C@H](C(=O)O)[C@@H](O[C@@H]6O[C@H](CO)[C@@H](O)[C@H](O)[C@H]6O)[C@H](O)[C@H]5O[C@@H]5O[C@H](CO)[C@@H](O)[C@H](O)[C@H]5O)[C@H](CO)C4CC[C@@]3(C)[C@@]1(C)C[C@H]2O (stereo partly drawn) [beta-ESCIN]
- Ki [1]: 780 nM
- Ki [2]: 2610 nM
- IC50 [3]: 3390 nM
- residual activity [4]: 11.66%
- residual activity [5]: 11.04%
- IC50 [6]: 1410 nM
